{
  "source": "paper PMC9377006",
  "about": "“Discovery of Desmuramylpeptide NOD2 Agonists with Single-Digit Nanomolar Potency” (ACS Medicinal Chemistry Letters, 2022)",
  "key": {"human NOD2": {"target": "T1, human NOD2 (Homo sapiens, UniProt Q9HC29)", "T1 construct": "host or cells: HEK-Blue NOD2 cells (derived from HEK293)", "T1 sequence (Q9HC29 whole entry)": "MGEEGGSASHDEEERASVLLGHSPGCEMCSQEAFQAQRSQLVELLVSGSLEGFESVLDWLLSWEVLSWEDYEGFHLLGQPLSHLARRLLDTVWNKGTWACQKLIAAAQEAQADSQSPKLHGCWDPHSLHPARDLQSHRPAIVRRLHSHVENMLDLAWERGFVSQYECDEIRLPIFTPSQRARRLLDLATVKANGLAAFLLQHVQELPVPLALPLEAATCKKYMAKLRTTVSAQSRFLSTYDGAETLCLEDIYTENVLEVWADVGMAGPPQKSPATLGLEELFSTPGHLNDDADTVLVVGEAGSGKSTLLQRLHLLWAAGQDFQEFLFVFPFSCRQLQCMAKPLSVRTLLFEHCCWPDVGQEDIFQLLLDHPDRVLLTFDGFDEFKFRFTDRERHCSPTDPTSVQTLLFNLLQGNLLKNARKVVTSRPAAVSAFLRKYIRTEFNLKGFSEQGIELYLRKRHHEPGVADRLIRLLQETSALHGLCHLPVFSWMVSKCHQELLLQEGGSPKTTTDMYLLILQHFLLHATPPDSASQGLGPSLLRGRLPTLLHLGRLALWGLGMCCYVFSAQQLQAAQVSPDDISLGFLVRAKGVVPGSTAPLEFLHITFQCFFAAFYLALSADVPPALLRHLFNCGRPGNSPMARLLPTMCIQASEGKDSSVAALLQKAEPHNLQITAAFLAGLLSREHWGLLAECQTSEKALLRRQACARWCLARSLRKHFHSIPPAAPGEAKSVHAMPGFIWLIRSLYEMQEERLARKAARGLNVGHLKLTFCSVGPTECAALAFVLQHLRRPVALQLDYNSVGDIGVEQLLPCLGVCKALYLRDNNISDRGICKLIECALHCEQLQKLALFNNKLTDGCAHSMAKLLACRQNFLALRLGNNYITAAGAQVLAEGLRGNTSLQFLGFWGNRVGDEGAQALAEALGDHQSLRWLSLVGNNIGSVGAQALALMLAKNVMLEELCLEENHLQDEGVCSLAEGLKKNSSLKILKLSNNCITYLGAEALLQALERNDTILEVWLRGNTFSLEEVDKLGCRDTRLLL", "assay": "HEK-Blue NOD2 NF-κB SEAP reporter assay (NOD2 agonistic activity)", "assay_type": "cell-based", "method": "The synthesized desmuramylpeptides were evaluated for their dose-dependent NOD2 activity using the commercially available HEK-Blue NOD2 reporter cell line. This cell line is derived from HEK293 cells by cotransfection of human NOD2 and an NF-κB-inducible secreted embryonic alkaline phosphatase (SEAP). Activation of NOD2 and subsequently of NF-κB leads to the expression and secretion of SEAP, the level of which can be quantified colorimetrically. […]\ntwo passages, 200 µg/mL Zeocin (Invivogen) was added to the medium every other passage to maintain selection pressure. The cells were incubated in a humidified atmosphere at 37 °C and 5% CO 2. […]\nAldrich), and 100 µg/mL streptomycin (Sigma -Aldrich).\nThe tested compounds were dissolved in DMSO and further di luted in culture medium to the desired final concentrations, such that the final DMSO concentration never exceeded 0.1%. […]\n4.6 NOD1/NOD2-NF-kB reporter assay\nHEK-Blue NOD2 or NOD1 cells were seeded (25,000 cells/well) in 96 -well plates in 100 µL HEK-Blue detection medium (Invivogen, San Diego, CA, USA) and treated with compounds ( 2 µM for fixed […]\nthe corresponding vehicle (0.1% DMSO). After 18 h of incubation (37 °C, 5% CO2), secreted embryonic alkaline phosphatase (SEAP) activity was determined spectrophotometrically as absorbance at 630 nm (BioTek Synergy microplate reader; Winooski, VT, USA). EC50 values were calculated using Prism software (version 9; GraphPad Software, CA, USA). The experiments were run in duplicates and repeated as at least three independent biological replicates. […]"}, "K562 cancer cells": {"system": "K562 cancer cells", "assay": "PBMC cytotoxicity against K562 cancer cells", "assay_type": "cell-based", "method": "In addition, we also investigated the ability of 40, both alone and in combination with LPS and IFN-γ, to induce direct and nonspecific cytolytic activity of PBMCs against cancer cells. For this purpose, we used a functional cytotoxicity assay based on the coincubation of preactivated PBMCs and fluorescently labeled K562 cancer cells.[33] Among the heterogeneous subpopulations of PBMCs, natural killer (NK) cells and, to a lesser extent, monocytes represent the main effector cell types in this assay. NK cells play an essential role in tumor and viral immunosurveillance, both through direct cytolytic destruction of aberrant cells and by facilitating the recruitment and activation of other immune cells through the secretion of cytokines.[34] In addition to their well-established role in cancer immunotherapy, NK cells thus also provide an attractive target in the development of vaccine adjuvants, particularly when Th1 cellular immune responses are preferred.[35] Other cell populations, however, may contribute to the magnitude of NK cell-mediated responses via cytokine secretion. To account for the contribution of these accessory cells and to more accurately represent in vivo conditions, the entire PBMC population was used instead of isolated NK cells.\nFigure 3 2 and 40 synergize with LPS and IFN-γ to induce the cytotoxicity of PBMCs against K562 cancer cells. Following 18 h of stimulation of PBMCs with 2 (1 μM) or 40 (1 μM) in the presence or absence of LPS (1 μg/mL) and IFN-γ (200 U/mL) or the corresponding vehicle (0.1% DMSO; NT), K562 cells were added in a 40:1 effector to target cell ratio. Cytotoxicity was determined after 4 h of coincubation. IL-2 (200 U/mL) was used as the positive control. Data are shown as relative activities to vehicle-treated control (0.1% DMSO) and are the means ± SEMs of duplicates of two independent experiments. Statistical significance was determined by one-way ANOVA followed by Dunnet’s multiple-comparisons test; **, p < 0.01, ***, p < 0.001. […]\n4.8 Peripheral blood mononuclear cell cytotoxicity\nThe PBMC cytotoxicity assays using K562 cells were performed as described previously, with some modifications.2 PBMCs were seeded (400,000 cells/well) in duplicates in 96 -well U-bottom plates and treated with 2 (1 µM) or 40 (1 µM), in the presence or absence of LPS (1 µg/mL) or IFN-γ (200 U/mL), IL-2 (200 U/mL), or the corresponding vehicle (0.1% DMSO) for 18 h. K562 were stained with carboxyfluorescein succinimidyl ester (CFSE, Invitrogen, Carlsbad, CA, USA), washed twice with complete medium, and added (10,000 cells/well) to the pre-treated PBMCs for a final effector cell to target tumor cell ratio of 40:1. After a 4 h coincubation (37 °C, 5% CO2), cells were stained with Sytox Blue dead cell stain (Invitrogen) and analyzed using an Attune NxT flow cytometer (Thermo Fisher Scientific, Waltham, MA, USA) and FlowJo software (Tree Star, Inc., Ashland, OR, USA). Cells that were positive for both CFSE and Sytox Blue were defined as dead K562 cells. PBMCs alone and CFSE-labeled K562 cells alone were also treated with the compounds at the same concentrations and stained with Sytox Blue to exclude any direct cytotoxicity of the compounds towards the PBMCs and cancer cells.\n4.9 Cytokine release from peripheral blood mononuclear cells […]"}},
  "data": [
    {"smiles": "CCOC(=O)CC[C@@H](NC(=O)[C@@H](NC(=O)CNC(=O)/C=C/c1ccc(OC(=O)CC23CC4CC(CC(C4)C2)C3)c(OC)c1)C(C)C)C(=O)OCC", "note": "[Compound 40]", "values": [
      {"measurement": "EC50", "setting": "human NOD2; HEK-Blue NOD2 cells, 18 h, means ± SEMs of at least three independent experiments, 8 or 16 concentrations (0.1 nM to 20 μM)", "value": "4.5 ± 1.1", "unit": "nM"},
      {"measurement": "improvement of activity relative to 1", "setting": "human NOD2; NOD2 EC50 versus compound 1", "value": 20, "unit": "factor"},
      {"measurement": "LPS- and IFN-γ-induced cytotoxic activity of PBMCs against K562, costimulation", "setting": "K562 cancer cells; 1 μM + LPS 1 μg/mL or IFN-γ 200 U/mL, 18 h, 40:1, 4 h", "value": "significantly enhanced"},
      {"measurement": "cytotoxic activity of PBMCs with costimuli, compared to 2", "setting": "K562 cancer cells; 1 μM + LPS or IFN-γ", "value": "slightly stronger activity"},
      {"measurement": "increase in the ratio of dead K562 cells", "setting": "K562 cancer cells; PBMCs stimulated 18 h with 1 μM compound alone, 40:1 effector to target ratio, 4 h coincubation, relative to vehicle", "value": 1.28, "unit": "fold"},
      {"measurement": "apoptosis in K562 cells in the absence of PBMCs", "setting": "K562 cancer cells; cotreatment with 40 and IFN-γ, data not shown", "value": "did not induce apoptosis"}
    ]}
  ]
}
